Read-outs that look alike come from different tables or passages of the source.
Tested on: HSV-1
Experiment: Plaque reduction assay, HSV-1 clinical isolates on Vero cells
Format: cell-based
Settings: Human alphaherpesvirus 1, Vero
Text: Viral isolates were used to infect a sub-confluent monolayer of Vero cells at a concentration of 75 or 50 plaque forming units (PFU) per well for HSV-1 and HSV-2, respectively. […] CMC medium typically used to create a semisolid interface and prevents indiscrimate viral spreading. Other materials (e.g. agar) may also be used to create this interface.
Cells were fixed with 10% formalin and stained with crystal violet before enumeration of the plaques (microscopic observation or use of fluorescent antibodies for detection is also suitable). The data obtained from these experiments were then expressed as percent inhibition of viral infectivity relative to the no drug control.
Definitions of phenotypic drug susceptibility classification as sensitive or resistant were as follows: ACV, <3 μM or >40 μM; PCV, <10 μM or >40 μM; CDV, <24 μM or >30 μM; FOS, <250 μM or >400 μM; and ACV, <6.5 μM or >40 μM; PCV, <38 μM or >40 μM; FOS, <250 μM or >400 μM for HSV-1 and HSV-2, respectively. Any IC50 values falling in between these sensitive and resistant cut-offs were reported as intermediate resistance.
The phenotype (i.e. reactivity to a drug) of the virus was characterised by the plaque reduction assay as described above.

Measured: IC50

Nc1ccn(C[C@@H](CO)OCP(=O)(O)O)c(=O)n1 [Cidofovir, cidofovir]
7.72 µM: 72 h, isolate HPG053, HSV-1 pol L802R + A834S (2405T>G, 2500G>T), also TK R176W, read-out: Drug susceptibility (IC50 value)
4.38 µM: isolate HPG020, HSV-1 pol S911N (2732G>A), also pol A1169T, read-out: Drug susceptibility (IC50 value)
2.99 µM: isolate HPG029, HSV-1 TK Y172S (515A>C), read-out: Drug susceptibility (IC50 value)
< 24 µM: isolate HPG002, HSV-1 pol E992K (2974G>A), also TK insert (G) nt 430-436, pol A1169T, read-out: Drug susceptibility Cidofovir (CDV) | isolate HPG003, HSV-1 TK Y172S (515A>C), read-out: Drug susceptibility Cidofovir (CDV) | isolate HPG005, HSV-1 TK A37V (110C>T), read-out: Drug susceptibility Cidofovir (CDV) | isolate HPG008, HSV-1 TK V204G (611T>G), read-out: Drug susceptibility Cidofovir (CDV) | isolate HPG009, HSV-1 pol E992K (2974G>A), also pol A1169T, read-out: Drug susceptibility Cidofovir (CDV) | isolate HPG010, HSV-1 TK Q125* (373C>T), read-out: Drug susceptibility Cidofovir (CDV) | isolate HPG011, HSV-1 TK Q125* (373C>T), read-out: Drug susceptibility Cidofovir (CDV) | isolate HPG013, HSV-1 TK M121I (363G>A), read-out: Drug susceptibility Cidofovir (CDV) | isolate HPG013, HSV-1 pol D83A (248A>C), also TK M121I, pol A1169T, read-out: Drug susceptibility Cidofovir (CDV) | isolate HPG014, HSV-1 pol A1115T (3343G>A), read-out: Drug susceptibility Cidofovir (CDV) | isolate HPG014, HSV-1 pol R993C (2977C>T), read-out: Drug susceptibility Cidofovir (CDV) | isolate HPG014, HSV-1 pol T54A (160A>G), read-out: Drug susceptibility Cidofovir (CDV) | isolate HPG018, HSV-1 TK frameshift (881delC to 885delC), read-out: Drug susceptibility Cidofovir (CDV) | isolate HPG018, HSV-1 pol P1199T (3595C>A), also TK deletion (C) nt 881-885, pol A1169T, read-out: Drug susceptibility Cidofovir (CDV) | isolate HPG019, HSV-1 pol K750T (2249A>C), also TK deletion (G) nt 430-436, pol A1169T, read-out: Drug susceptibility Cidofovir (CDV) | isolate HPG020, HSV-1 pol S911N (2732G>A), also pol A1169T, read-out: Drug susceptibility Cidofovir (CDV) | isolate HPG021, HSV-1 pol R681Q (2042G>A), also TK deletion (G) nt 430-436, read-out: Drug susceptibility Cidofovir (CDV) | isolate HPG021, HSV-1 pol T839A (2515A>G), also TK deletion (G) nt 430-436, read-out: Drug susceptibility Cidofovir (CDV) | isolate HPG025, HSV-1 pol E850Q (2548G>C), also TK R216C, read-out: Drug susceptibility Cidofovir (CDV) | isolate HPG026, HSV-1 pol E850Q (2548G>C), also TK R216C, pol A1169T, read-out: Drug susceptibility Cidofovir (CDV) | isolate HPG027, HSV-1 TK V204G (611T>G), also pol S914L, A1169AT, read-out: Drug susceptibility Cidofovir (CDV) | isolate HPG027, HSV-1 pol S914L (2741C>T), also TK V204G, pol A1169T, read-out: Drug susceptibility Cidofovir (CDV) | isolate HPG029, HSV-1 TK Y172S (515A>C), read-out: Drug susceptibility Cidofovir (CDV) | isolate HPG031, HSV-1 pol E1120A (3359A>C), also a TK resistance mutation (footnote e), read-out: Drug susceptibility Cidofovir (CDV) | isolate HPG031, HSV-1 pol G139R (415G>C or 415G>A), also a TK resistance mutation (footnote e), read-out: Drug susceptibility Cidofovir (CDV)
20.4 µM: isolate HPG019, HSV-1 pol K750T (2249A>C), also TK deletion (G) nt 430-436, pol A1169T, read-out: Drug susceptibility (IC50 value)
3.03 µM: isolate HPG018, HSV-1 TK frameshift (881delC to 885delC), read-out: Drug susceptibility (IC50 value) | isolate HPG018, HSV-1 pol P1199T (3595C>A), also TK deletion (C) nt 881-885, pol A1169T, read-out: Drug susceptibility (IC50 value)
> 30 µM: isolate HPG015, HSV-1 pol 966stop or F965_I966insF (2892_2893insT to 2895_2896insT), read-out: Drug susceptibility Cidofovir (CDV)
9.44 µM: isolate HPG009, HSV-1 pol E992K (2974G>A), also pol A1169T, read-out: Drug susceptibility (IC50 value)
2.21 µM: isolate HPG005, HSV-1 TK A37V (110C>T), read-out: Drug susceptibility (IC50 value)
45.1 µM: isolate HPG015, HSV-1 pol 966stop or F965_I966insF (2892_2893insT to 2895_2896insT), read-out: Drug susceptibility (IC50 value)
6.09 µM: isolate HPG002, HSV-1 pol E992K (2974G>A), also TK insert (G) nt 430-436, pol A1169T, read-out: Drug susceptibility (IC50 value)
4.8 µM: isolate HPG031, HSV-1 pol E1120A (3359A>C), also a TK resistance mutation (footnote e), read-out: Drug susceptibility (IC50 value) | isolate HPG031, HSV-1 pol G139R (415G>C or 415G>A), also a TK resistance mutation (footnote e), read-out: Drug susceptibility (IC50 value)
< 1.56 µM: isolate HPG003, HSV-1 TK Y172S (515A>C), read-out: Drug susceptibility (IC50 value) | isolate HPG010, HSV-1 TK Q125* (373C>T), read-out: Drug susceptibility (IC50 value) | isolate HPG011, HSV-1 TK Q125* (373C>T), read-out: Drug susceptibility (IC50 value) | isolate HPG021, HSV-1 pol R681Q (2042G>A), also TK deletion (G) nt 430-436, read-out: Drug susceptibility (IC50 value) | isolate HPG021, HSV-1 pol T839A (2515A>G), also TK deletion (G) nt 430-436, read-out: Drug susceptibility (IC50 value) | isolate HPG025, HSV-1 pol E850Q (2548G>C), also TK R216C, read-out: Drug susceptibility (IC50 value) | isolate HPG026, HSV-1 pol E850Q (2548G>C), also TK R216C, pol A1169T, read-out: Drug susceptibility (IC50 value)
17.2 µM: isolate HPG014, HSV-1 pol A1115T (3343G>A), read-out: Drug susceptibility (IC50 value) | isolate HPG014, HSV-1 pol R993C (2977C>T), read-out: Drug susceptibility (IC50 value) | isolate HPG014, HSV-1 pol T54A (160A>G), read-out: Drug susceptibility (IC50 value)
3.93 µM: isolate HPG027, HSV-1 TK V204G (611T>G), also pol S914L, A1169AT, read-out: Drug susceptibility (IC50 value) | isolate HPG027, HSV-1 pol S914L (2741C>T), also TK V204G, pol A1169T, read-out: Drug susceptibility (IC50 value)
3.11 µM: isolate HPG013, HSV-1 TK M121I (363G>A), read-out: Drug susceptibility (IC50 value) | isolate HPG013, HSV-1 pol D83A (248A>C), also TK M121I, pol A1169T, read-out: Drug susceptibility (IC50 value)
3.56 µM: isolate HPG008, HSV-1 TK V204G (611T>G), read-out: Drug susceptibility (IC50 value)
3.61 µM: isolate HPG032, HSV-1 TK 183* (437_438insA), read-out: Drug susceptibility (IC50 value)

From patent US12281363B2, “Methods for detecting antiviral-drug resistant virus” (Secretary of State for Health and Social Care, priority 2018, dated 2025)
